Data taken from PubChem BioAssay (NCI).
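Protocol summary: plate cells (96-well), add compound at 5 concentrations, incubate 48 h, interpolate endpoints linearly. TGI: concentration producing complete growth inhibition.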

How the values were obtained:
Experiment in all cases: growth of human tumour cells (NCI), 48 h
[1] = system: 786-0 renal
[2] = system: A498 renal
[3] = system: A549 NSCLC
[4] = system: ACHN renal
[5] = system: BT-549 breast
[6] = system: CAKI-1 renal
[7] = system: CCRF-CEM leukemia
[8] = system: COLO 205 colon
[9] = system: DU-145 prostate
[10] = system: EKVX NSCLC
[11] = system: HCC-2998 colon
[12] = system: HCT-116 colon
[13] = system: HCT-15 colon
[14] = system: HL-60(TB) leukemia
[15] = system: HOP-92 NSCLC
[16] = system: IGROV1 ovarian
[17] = system: K-562 leukemia
[18] = system: KM12 colon
[19] = system: LOX IMVI melanoma
[20] = system: M14 melanoma
[21] = system: MALME-3M melanoma
[22] = system: MCF7 breast
[23] = system: MDA-MB-231 breast
[24] = system: MDA-MB-435
[25] = system: MDA-N
[26] = system: MOLT-4 leukemia
[27] = system: NCI-H23 lung
[28] = system: NCI-H460 lung
[29] = system: NCI-H522 lung
[30] = system: NCI/ADR-RES ovarian
[31] = system: OVCAR-3 ovarian
[32] = system: OVCAR-4 ovarian
[33] = system: OVCAR-5 ovarian
[34] = system: OVCAR-8 ovarian
[35] = system: PC-3 prostate
[36] = system: RPMI-8226 leukemia
[37] = system: RXF 393 renal
[38] = system: SF-295 CNS
[39] = system: SF-539 CNS
[40] = system: SK-MEL-2 melanoma
[41] = system: SK-MEL-28 melanoma
[42] = system: SK-MEL-5 melanoma
[43] = system: SK-OV-3 ovarian
[44] = system: SN12C renal
[45] = system: SNB-19 CNS
[46] = system: SNB-75 CNS
[47] = system: SR leukemia
[48] = system: SW-620 colon
[49] = system: TK-10 renal
[50] = system: U251 CNS
[51] = system: UACC-257 melanoma
[52] = system: UACC-62 melanoma
[53] = system: UO-31 renal
[54] = system: HOP-62 NSCLC
[55] = system: HS 578T breast
[56] = system: HT29 colon
[57] = system: NCI-H226 lung
[58] = system: SF-268 CNS

For CC(C)CC(NC(=O)C(CSc1ccc([N+](=O)[O-])cc1)Cc1ccccc1)C(=O)Nc1ccccc1 (stereo not given), the TGI [1] was > 100 µM, the TGI [2] was > 100 µM and the TGI [3] was > 100 µM. For the same compound, the TGI [4] was > 100 µM, the TGI [5] was 59.5 µM and the TGI [6] was > 100 µM. The TGI [7] was > 100 µM, the TGI [8] was > 100 µM and the TGI [9] was > 100 µM. For the same compound, the TGI [10] was > 100 µM, the TGI [11] was > 100 µM and the TGI [12] was > 100 µM. The TGI [13] was > 100 µM, the TGI [14] was > 100 µM and the TGI [15] was > 100 µM. The TGI [16] was > 100 µM, the TGI [17] was > 100 µM and the TGI [18] was > 100 µM. The TGI [19] was > 100 µM, the TGI [20] was > 100 µM and the TGI [21] was 80.5 µM. For the same compound, the TGI [22] was > 100 µM, the TGI [23] was > 100 µM and the TGI [24] was > 100 µM. For the same compound, the TGI [25] was > 100 µM, the TGI [26] was > 100 µM and the TGI [27] was > 100 µM. The TGI [28] was > 100 µM, the TGI [29] was > 100 µM and the TGI [30] was > 100 µM. For the same compound, the TGI [31] was > 100 µM, the TGI [32] was > 100 µM and the TGI [33] was > 100 µM. For the same compound, the TGI [34] was > 100 µM, the TGI [35] was > 100 µM and the TGI [36] was > 100 µM. The TGI [37] was > 100 µM, the TGI [38] was > 100 µM and the TGI [39] was > 100 µM. For the same compound, the TGI [40] was > 100 µM, the TGI [41] was > 100 µM and the TGI [42] was > 100 µM. The TGI [43] was > 100 µM, the TGI [44] was > 100 µM and the TGI [45] was > 100 µM. For the same compound, the TGI [46] was 65.1 µM, the TGI [47] was > 100 µM and the TGI [48] was > 100 µM. The TGI [49] was > 100 µM, the TGI [50] was > 100 µM and the TGI [51] was > 100 µM. The TGI [52] was > 100 µM and the TGI [53] was > 100 µM.

In the case of O=C(c1cc(Cl)ccc1Cl)N1CCN(c2ccc(Cl)c(Cl)c2)CC1, the TGI [1] is reported as 48.5 µM, the TGI [2] is reported as 44.1 µM and the TGI [3] is reported as > 100 µM. The TGI [4] was > 100 µM, the TGI [5] was 80.8 µM and the TGI [6] was > 100 µM. The TGI [7] was > 100 µM, the TGI [9] was > 100 µM and the TGI [10] was > 100 µM. The TGI [11] was > 100 µM, the TGI [12] was > 100 µM and the TGI [13] was > 100 µM. For the same compound, the TGI [14] was > 100 µM, the TGI [54] was > 100 µM and the TGI [15] was > 100 µM. The TGI [55] was > 100 µM, the TGI [56] was 83.9 µM and the TGI [16] was > 100 µM. It also gave a TGI [17] of 85.4 µM, a TGI [18] of 51.9 µM and a TGI [19] of 84.1 µM. The TGI [21] was > 100 µM, the TGI [22] was 72 µM and the TGI [23] was > 100 µM. The TGI [25] was 96.2 µM, the TGI [26] was 54.3 µM and the TGI [57] was > 100 µM. The TGI [27] was > 100 µM, the TGI [28] was 36.1 µM and the TGI [29] was 52.6 µM. For the same compound, the TGI [31] was > 100 µM, the TGI [32] was > 100 µM and the TGI [33] was > 100 µM. For the same compound, the TGI [34] was 45.5 µM, the TGI [35] was 97.8 µM and the TGI [36] was > 100 µM. For the same compound, the TGI [37] was 54.1 µM, the TGI [58] was > 100 µM and the TGI [38] was > 100 µM. The TGI [39] was 76.4 µM, the TGI [41] was > 100 µM and the TGI [42] was 30.3 µM. The TGI [44] was > 100 µM, the TGI [46] was > 100 µM and the TGI [47] was > 100 µM. For the same compound, the TGI [48] was > 100 µM, the TGI [49] was > 100 µM and the TGI [50] was > 100 µM. The TGI [51] was 83.9 µM and the TGI [53] was 33.8 µM.

Cc1cc(-c2ccc[nH]2)on1 was tested, and the TGI [1] was > 100 µM, the TGI [2] was > 100 µM and the TGI [3] was > 100 µM. For the same compound, the TGI [4] was > 100 µM, the TGI [5] was > 100 µM and the TGI [6] was > 100 µM. For the same compound, the TGI [7] was > 100 µM, the TGI [8] was > 100 µM and the TGI [9] was > 100 µM. For the same compound, the TGI [10] was > 100 µM, the TGI [11] was > 100 µM and the TGI [12] was > 100 µM. The TGI [13] was > 100 µM, the TGI [54] was > 100 µM and the TGI [15] was > 100 µM. The TGI [55] was > 100 µM, the TGI [56] was > 100 µM and the TGI [16] was > 100 µM. For the same compound, the TGI [17] was > 100 µM, the TGI [18] was > 100 µM and the TGI [20] was > 100 µM. For the same compound, the TGI [21] was > 100 µM, the TGI [22] was > 100 µM and the TGI [23] was > 100 µM. The TGI [24] was > 100 µM, the TGI [25] was > 100 µM and the TGI [26] was > 100 µM. The TGI [27] was > 100 µM, the TGI [28] was > 100 µM and the TGI [29] was > 100 µM. The TGI [30] was > 100 µM, the TGI [31] was > 100 µM and the TGI [32] was > 100 µM. For the same compound, the TGI [33] was > 100 µM, the TGI [34] was > 100 µM and the TGI [35] was > 100 µM. For the same compound, the TGI [36] was > 100 µM, the TGI [37] was > 100 µM and the TGI [58] was > 100 µM. For the same compound, the TGI [38] was > 100 µM, the TGI [40] was > 100 µM and the TGI [41] was > 100 µM. For the same compound, the TGI [42] was > 100 µM, the TGI [43] was > 100 µM and the TGI [45] was > 100 µM. For the same compound, the TGI [46] was > 100 µM, the TGI [48] was > 100 µM and the TGI [49] was > 100 µM. For the same compound, the TGI [50] was > 100 µM, the TGI [51] was > 100 µM and the TGI [52] was > 100 µM. The TGI [53] was > 100 µM.
